Residues, ends and D or L forms follow the SMILES beside them.
What was measured:
WI-38 = assay: Antiproliferative activity against human WI-38 cells after 72 hrs by alamarBlue assay; type: cell-based; settings: WI-38, 72 h
HL-60 = assay: cells; settings: Homo sapiens, HL-60, 72 h
Description: Antiproliferative activity against human HL-60 cells measured after 72 hrs by alamarBlue assay

LSD1/CoREST complex = LSD1/CoREST complex (Homo sapiens, UniProt O60341); assay: Inhibition of human LSD1/CoREST; type: protein-complex assay

IC50 (HL-60) | Ki (LSD1/CoREST complex) | SMILES | IC50 (WI-38)
– | – | CN1CCN(C(=O)CNC2CC2c2cc(F)cc(F)c2OCc2ccccc2)CC1 (centres undefined) | > 50 µM
> 100 µM | 170 nM | N=C(N)NCCC[C@H](NC(=O)[C@H](CCCNC(=N)N)NC(=O)[C@H](CCCNC(=N)N)NC(=O)[C@H](CCCNC(=N)N)NC(=O)[C@H](CCCNC(=N)N)NC(=O)[C@H](CCCNC(=N)N)NC(=O)[C@H](CCCNC(=N)N)NC(=O)[C@H](CCCNC(=N)N)NC(=O)[C@H](CCCNC(=N)N)NC(=O)[C@H](CCCNC(=N)N)NC(=O)c1cc(OCc2cn(CCO)nn2)cc(OCc2cn(CCO)nn2)c1)C(N)=O | –
5.2 µM | – | CC(C)C[C@@H]1NC(=O)[C@H](Cc2ccccc2)NC(=O)[C@H](CO)NC(=O)[C@H](CCCNC(=N)N)NC(=O)[C@@H]2CCCN2C(=O)OCCSSCCn2cc(nn2)COc2cc(cc(C(=O)N[C@@H](CCCNC(=N)N)C(=O)N[C@@H](CCCNC(=N)N)C(=O)N[C@@H](CCCNC(=N)N)C(=O)N[C@@H](CCCNC(=N)N)C(=O)N[C@@H](CCCNC(=N)N)C(=O)N[C@@H](CCCNC(=N)N)C(=O)N[C@@H](CCCNC(=N)N)C(=O)N[C@@H](CCCNC(=N)N)C(=O)N[C@@H](CCCNC(=N)N)C(=O)N[C@@H](CCCNC(=N)N)C(N)=O)c2)OCc2cn(nn2)CCSSCCOC(=O)NCCCC[C@@H](C(N)=O)NC(=O)[C@H](CCCNC(=N)N)NC(=O)[C@H](CCCNC(=N)N)NC(=O)[C@H](C(C)C)NC1=O | 41 µM
17 µM | – | CC(C)C[C@@H]1NC(=O)[C@H](Cc2ccccc2)NC(=O)[C@H](CO)NC(=O)[C@H](CCCNC(=N)N)NC(=O)[C@@H]2CCCN2C(=O)OCCOCCn2cc(nn2)COc2cc(cc(C(=O)N[C@@H](CCCNC(=N)N)C(=O)N[C@@H](CCCNC(=N)N)C(=O)N[C@@H](CCCNC(=N)N)C(=O)N[C@@H](CCCNC(=N)N)C(=O)N[C@@H](CCCNC(=N)N)C(=O)N[C@@H](CCCNC(=N)N)C(=O)N[C@@H](CCCNC(=N)N)C(=O)N[C@@H](CCCNC(=N)N)C(=O)N[C@@H](CCCNC(=N)N)C(=O)N[C@@H](CCCNC(=N)N)C(N)=O)c2)OCc2cn(nn2)CCOCCOC(=O)NCCCC[C@@H](C(N)=O)NC(=O)[C@H](CCCNC(=N)N)NC(=O)[C@H](CCCNC(=N)N)NC(=O)[C@H](C(C)C)NC1=O | > 100 µM
> 100 µM | – | CC(C)C[C@H](NC(=O)[C@H](Cc1ccccc1)NC(=O)[C@H](CO)NC(=O)[C@H](CCCNC(=N)N)NC(=O)[C@@H]1CCCN1)C(=O)N[C@H](C(=O)N[C@@H](CCCNC(=N)N)C(=O)N[C@@H](CCCNC(=N)N)C(=O)N[C@@H](CCCCN)C(=O)O)C(C)C (H-PRSFLVRRK-OH) | > 100 µM

Source: ChEMBL document CHEMBL5053484, “Structure-Based Identification of Potent Lysine-Specific Demethylase 1 Inhibitor Peptides and Temporary Cyclization to Enhance Proteolytic Stability and Cell Growth-Inhibitory Activity” (J Med Chem, 2021)
